Experimental data taken from ChEMBL document CHEMBL5120838, “Synthesis and biological evaluation of geniposide derivatives as inhibitors of hyperuricemia, inflammatory and fibrosis” (Eur J Med Chem, 2022).
Active and inactive are the calls of the source. No cut-off for these calls is given here.

Tests used:
[1] = molecular target: Xanthine dehydrogenase/oxidase (Bos taurus, UniProt P80457); experiment: Inhibition of bovine XOD assessed as inhibition of uric acid formation using xanthine as substrate preincubated with enzyme for 5 mins followed by substrate addition and measured for 30 mins by microplate reader analysis
Sequence of Xanthine dehydrogenase/oxidase (P80457 whole entry): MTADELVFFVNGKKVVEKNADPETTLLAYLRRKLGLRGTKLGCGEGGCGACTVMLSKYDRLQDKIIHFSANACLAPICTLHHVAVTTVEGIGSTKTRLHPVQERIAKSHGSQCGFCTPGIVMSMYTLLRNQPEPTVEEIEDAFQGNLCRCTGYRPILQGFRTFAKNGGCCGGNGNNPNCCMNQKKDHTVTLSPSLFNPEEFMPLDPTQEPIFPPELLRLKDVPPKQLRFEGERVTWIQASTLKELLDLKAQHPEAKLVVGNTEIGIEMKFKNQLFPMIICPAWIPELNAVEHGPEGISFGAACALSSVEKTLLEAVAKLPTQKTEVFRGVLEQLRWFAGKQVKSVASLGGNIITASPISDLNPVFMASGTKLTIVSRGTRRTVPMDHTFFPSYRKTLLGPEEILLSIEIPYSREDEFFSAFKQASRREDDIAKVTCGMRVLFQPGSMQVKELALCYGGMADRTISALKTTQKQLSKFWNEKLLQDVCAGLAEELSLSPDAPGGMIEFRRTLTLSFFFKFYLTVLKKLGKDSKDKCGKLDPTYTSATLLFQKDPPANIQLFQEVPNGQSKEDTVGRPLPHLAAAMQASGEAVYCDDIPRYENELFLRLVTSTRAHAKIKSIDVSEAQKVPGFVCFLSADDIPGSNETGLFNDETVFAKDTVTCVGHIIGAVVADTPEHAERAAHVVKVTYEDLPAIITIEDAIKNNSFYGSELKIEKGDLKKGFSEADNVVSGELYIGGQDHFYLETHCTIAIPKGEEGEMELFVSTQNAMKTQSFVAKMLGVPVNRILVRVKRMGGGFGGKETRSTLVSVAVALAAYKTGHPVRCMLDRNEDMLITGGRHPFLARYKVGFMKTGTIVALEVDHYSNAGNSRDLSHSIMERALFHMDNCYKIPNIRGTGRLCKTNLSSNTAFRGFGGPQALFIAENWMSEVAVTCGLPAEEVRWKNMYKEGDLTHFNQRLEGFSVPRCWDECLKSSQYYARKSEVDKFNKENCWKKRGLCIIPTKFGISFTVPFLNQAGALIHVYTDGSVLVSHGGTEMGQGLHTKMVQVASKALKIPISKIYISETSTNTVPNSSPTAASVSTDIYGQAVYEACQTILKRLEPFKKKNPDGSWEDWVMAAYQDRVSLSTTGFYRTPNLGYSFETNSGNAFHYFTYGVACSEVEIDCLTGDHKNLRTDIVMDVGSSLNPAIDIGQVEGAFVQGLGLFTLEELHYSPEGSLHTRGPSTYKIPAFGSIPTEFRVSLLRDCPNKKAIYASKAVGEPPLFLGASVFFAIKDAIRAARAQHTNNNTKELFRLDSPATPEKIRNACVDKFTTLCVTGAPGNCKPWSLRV

Mus musculus [2] = experiment: (§1) Nephroprotective activity against adenine and potassium oxonate-induced hyperuricemia Kunming mouse model assessed as reduction in neutrophils infiltrations at 20 mg/kg, po administered via gavage and measured after 21 days by hematoxylin-eosin and Masson trichrome staining based optical microscopic analysis; type: functional, organism-based; details: time 21.0 day
Mus musculus [3] = experiment: as §1, with “renal tubule dilation” for “neutrophils infiltrations”; type: functional, organism-based; details: time 21.0 day
Mus musculus [4] = experiment: Anti-hyperuricemic activity against adenine and potassium oxonate-induced hyperuricemia Kunming mouse model assessed as reduction in serum creatinine level at 20 mg/kg, po administered via gavage once daily for 2 weeks (reference value: 87.62 +/- 0.67 uM); type: functional
Mus musculus [5] = experiment: as §1, with “appearance of clear tubular structures” for “reduction in neutrophils infiltrations”; type: functional, organism-based; details: time 21.0 day
Mus musculus [6] = experiment: Anti-hyperuricemic activity against adenine and potassium oxonate-induced hyperuricemia Kunming mouse model assessed as reduction in serum uric acid level at 20 mg/kg, po administered via gavage once daily for 2 weeks (reference value: 318.16 +/- 3.31 uM); type: functional
Mus musculus [7] = experiment: as §1, with “cytoplasmic vacuolation of renal tubular epithelial cells” for “neutrophils infiltrations”; type: functional, organism-based; details: time 21.0 day
Mus musculus [8] = experiment: as §1, with “tubular-interstitial lesion development” for “neutrophils infiltrations”; type: functional, organism-based; details: time 21.0 day
Mus musculus [9] = experiment: Anti-hyperuricemic activity against adenine and potassium oxonate-induced hyperuricemia Kunming mouse model assessed as blood urea nitrogen level at 20 mg/kg, po administered via gavage once daily for 2 weeks (reference value: 9.88 +/- 1.21 mM); type: functional
Mus musculus [10] = experiment: as §1, with “connective tissue hyperplasia” for “neutrophils infiltrations”; type: functional, organism-based; details: time 21.0 day
HK-2 [11] = experiment: Antiinflammatory activity in hyperuricemic human HK-2 cells assessed as reduction in TNF-alpha level at 200 uM; type: functional, cell-based
Mus musculus [12] = experiment: Anti-hyperuricemic activity against adenine and potassium oxonate-induced hyperuricemia Kunming mouse model assessed as reduction in serum creatinine level at 200 mg/kg, po administered via gavage once daily for 2 weeks (reference value: 87.62 +/- 0.67 uM); type: functional
HK-2 [13] = experiment: Antiinflammatory activity in hyperuricemic human HK-2 cells assessed as reduction in IL-1beta level at 200 uM; type: functional, cell-based
Mus musculus [14] = experiment: Anti-hyperuricemic activity against adenine and potassium oxonate-induced hyperuricemia Kunming mouse model assessed as blood urea nitrogen level at 200 mg/kg, po administered via gavage once daily for 2 weeks (reference value: 9.88 +/- 1.21 mM); type: functional
Mus musculus [15] = experiment: Anti-hyperuricemic activity against adenine and potassium oxonate-induced hyperuricemia Kunming mouse model assessed as reduction in serum uric acid level at 200 mg/kg, po administered via gavage once daily for 2 weeks (reference value: 318.16 +/- 3.31 uM); type: functional
HK-2 [16] = experiment: Antiinflammatory activity in hyperuricemic human HK-2 cells assessed as reduction in TGF-beta level at 200 uM; type: functional, cell-based
Mus musculus [17] = experiment: Anti-hyperuricemic activity against adenine and potassium oxonate-induced hyperuricemia Kunming mouse model assessed as blood urea nitrogen level at 20 mg/kg, po administered via gavage once daily for 4 weeks (reference value: 15.25 +/- 1.21 mM); type: functional
Mus musculus [18] = species on record: Mus musculus; details: Kunming, dose 20.0 mg/kg, route po, time 2.0 weeks
Description: In vivo inhibition of XOD in adenine and potassium oxonate-induced hyperuricemia Kunming mouse model assessed as reduction in XOD activity in liver at 20 mg/kg, po administered via gavage once daily for 2 weeks

Mus musculus [19] = experiment: Anti-hyperuricemic activity against adenine and potassium oxonate-induced hyperuricemia Kunming mouse model assessed as reduction in creatinine level at 20 mg/kg, po administered via gavage once daily for 4 weeks (reference value: 76.87 +/- 0.67 uM); type: functional
Mus musculus [20] = experiment: Renal protective activity against adenine and potassium oxonate-induced hyperuricemia Kunming mouse model assessed as reduction in urate accumulation in kidney at 20 mg/kg, po administered via gavage for 2 weeks by polarization microscopic analysis; type: functional, organism-based
Mus musculus [21] = experiment: Anti-hyperuricemic activity against adenine and potassium oxonate-induced hyperuricemia Kunming mouse model assessed as reduction in serum uric acid level at 20 mg/kg, po administered via gavage once daily for 4 weeks (reference value: 356.15 +/- 3.31 uM); type: functional

Structure (SMILES): CC(=O)OCC1=CC[C@@H]2C(C(=O)Nn3cccc3)=CO[C@@H](O[C@@H]3O[C@H](COC(C)=O)[C@@H](OC(C)=O)[C@H](OC(C)=O)[C@H]3OC(C)=O)[C@H]12
- IC50 [1]: 2.15 µM
- Activity (Mus musculus [2]): Active
- Activity (Mus musculus [3]): Active
- Activity (Mus musculus [4]): 65.57 µM
- Activity (Mus musculus [5]): Active
- Activity (Mus musculus [6]): 263.03 µM
- Activity (Mus musculus [7]): Active
- Activity (Mus musculus [8]): Active
- Activity (Mus musculus [9]): 6.42 mM
- Activity (Mus musculus [10]): Active

Structure (SMILES): COC(=O)C1=CO[C@@H](O[C@@H]2O[C@H](CO)[C@@H](O)[C@H](O)[C@H]2O)[C@@H]2C(CO)=CC[C@H]12 [GENIPOSIDE]
- IC50 [1]: 161 µM
- Activity (HK-2 [11]): Active
- Activity (Mus musculus [12]): 75.09 µM
- Activity (HK-2 [13]): Active
- Activity (Mus musculus [14]): 7 mM
- Activity (Mus musculus [15]): 236.72 µM
- Activity (HK-2 [16]): Active

Structure (SMILES): CC(=O)OCC1=CC[C@@H]2C(C(=O)Nc3ccc(Br)c4ccccc34)=CO[C@@H](O[C@@H]3O[C@H](COC(C)=O)[C@@H](OC(C)=O)[C@H](OC(C)=O)[C@H]3OC(C)=O)[C@H]12
- IC50 [1]: 4.14 µM
- Activity (Mus musculus [2]): Active
- Activity (Mus musculus [3]): Active
- Activity (Mus musculus [4]): 57.83 µM
- Activity (Mus musculus [5]): Active
- Activity (Mus musculus [6]): 242.83 µM
- Activity (Mus musculus [7]): Active
- Activity (Mus musculus [8]): Active
- Activity (Mus musculus [9]): 6.02 mM
- Activity (Mus musculus [10]): Active

Structure (SMILES): CC(=O)OCC1=CC[C@@H]2C(C(=O)SCc3ccccc3)=CO[C@@H](O[C@@H]3O[C@H](COC(C)=O)[C@@H](OC(C)=O)[C@H](OC(C)=O)[C@H]3OC(C)=O)[C@H]12
- IC50 [1]: 181 µM

Structure (SMILES): COC(=O)C1=COC(OC(=O)NC2CCCCC2)[C@@H]2C(COC(=O)NC3CCCCC3)=CC[C@H]12 (stereo partly specified)
- IC50 [1]: 281 µM

Structure (SMILES): CC(=O)OCC1=CC[C@@H]2C(C(=O)Nn3ncc4ccccc43)=CO[C@@H](O[C@@H]3O[C@H](COC(C)=O)[C@@H](OC(C)=O)[C@H](OC(C)=O)[C@H]3OC(C)=O)[C@H]12
- IC50 [1]: 22.8 µM

Structure (SMILES): CC(=O)OCC1=CC[C@@H]2C(C(=O)Nc3cccc4[nH]ccc34)=CO[C@@H](O[C@@H]3O[C@H](COC(C)=O)[C@@H](OC(C)=O)[C@H](OC(C)=O)[C@H]3OC(C)=O)[C@H]12
- IC50 [1]: 17.5 µM

Structure (SMILES): COC(=O)C1=COC(OC(=O)NC(C)(C)C)[C@@H]2C(COC(=O)NC(C)(C)C)=CC[C@H]12 (stereo partly specified)
- IC50 [1]: 104 µM

Structure (SMILES): COC(=O)C1=COC(OC(=O)NC(C)C)[C@@H]2C(COC(=O)NC(C)C)=CC[C@H]12 (stereo partly specified)
- IC50 [1]: 80.2 µM

Structure (SMILES): COC(=O)C1=COC(OC(=O)Nc2cccc(C)c2)[C@@H]2C(COC(=O)Nc3cccc(C)c3)=CC[C@H]12 (stereo partly specified)
- IC50 [1]: 140 µM

Structure (SMILES): CCNC(=O)OCC1=CC[C@@H]2C(C(=O)OC)=COC(OC(=O)NCC)[C@H]12 (stereo partly specified)
- IC50 [1]: 61.2 µM

Structure (SMILES): CC(=O)OCC1=CC[C@@H]2C(C(=O)Nc3ccc(C#N)cc3)=CO[C@@H](O[C@@H]3O[C@H](COC(C)=O)[C@@H](OC(C)=O)[C@H](OC(C)=O)[C@H]3OC(C)=O)[C@H]12
- IC50 [1]: 1.86 µM
- Activity (Mus musculus [2]): Active
- Activity (Mus musculus [3]): Active
- Activity (Mus musculus [4]): 89.09 µM
- Activity (Mus musculus [5]): Active
- Activity (Mus musculus [6]): 244.57 µM
- Activity (Mus musculus [7]): Active
- Activity (Mus musculus [8]): Active
- Activity (Mus musculus [9]): 7.29 mM
- Activity (Mus musculus [10]): Active

Structure (SMILES): CC(=O)OCC1=CC[C@@H]2C(C(=O)Nc3cccc(F)c3)=CO[C@@H](O[C@@H]3O[C@H](COC(C)=O)[C@@H](OC(C)=O)[C@H](OC(C)=O)[C@H]3OC(C)=O)[C@H]12
- IC50 [1]: 28.8 µM

Structure (SMILES): CC(=O)OCC1=CC[C@@H]2C(C(=O)Nc3ccc(C(=O)O)cc3)=CO[C@@H](O[C@@H]3O[C@H](COC(C)=O)[C@@H](OC(C)=O)[C@H](OC(C)=O)[C@H]3OC(C)=O)[C@H]12
- IC50 [1]: 32.4 µM

Structure (SMILES): COC(=O)C1=COC(O)[C@@H]2C(CO)=CC[C@H]12 (stereo partly specified)
- IC50 [1]: 93.4 µM

Structure (SMILES): CC(=O)OCC1=CC[C@@H]2C(C(=O)Sc3ccncc3)=CO[C@@H](O[C@@H]3O[C@H](COC(C)=O)[C@@H](OC(C)=O)[C@H](OC(C)=O)[C@H]3OC(C)=O)[C@H]12
- IC50 [1]: 20.5 µM

Structure (SMILES): Oc1ncnc2[nH]ncc12 [ALLOPURINOL]
- Activity (Mus musculus [17]): 12.58 mM
- Activity (Mus musculus [4]): 63.31 µM
- inhibition (Mus musculus [18]): Active
- Activity (Mus musculus [19]): 47.26 µM
- Activity (Mus musculus [6]): 233.62 µM
- Activity (Mus musculus [9]): 6.3 mM
- Activity (Mus musculus [20]): Active
- Activity (Mus musculus [21]): 193.68 µM

Structure (SMILES): CC(=O)OCC1=CC[C@@H]2C(C(=O)Sc3ncc[nH]3)=CO[C@@H](O[C@@H]3O[C@H](COC(C)=O)[C@@H](OC(C)=O)[C@H](OC(C)=O)[C@H]3OC(C)=O)[C@H]12
- IC50 [1]: 87.5 µM

Structure (SMILES): CC(C)(C)C(=O)OCC1=CC[C@@H]2C(C(=O)O)=CO[C@@H](O[C@@H]3O[C@H](COC(=O)C(C)(C)C)[C@@H](OC(=O)C(C)(C)C)[C@H](OC(=O)C(C)(C)C)[C@H]3OC(=O)C(C)(C)C)[C@H]12
- IC50 [1]: 91.2 µM

Structure (SMILES): COC(=O)C1=COC(OC(=O)Nc2ccc(OC)cc2)[C@@H]2C(COC(=O)Nc3ccc(OC)cc3)=CC[C@H]12 (stereo partly specified)
- IC50 [1]: 12.8 µM

Structure (SMILES): CC(=O)OCC1=CC[C@@H]2C(C(=O)Nc3cncc4ccccc34)=CO[C@@H](O[C@@H]3O[C@H](COC(C)=O)[C@@H](OC(C)=O)[C@H](OC(C)=O)[C@H]3OC(C)=O)[C@H]12
- IC50 [1]: 18.5 µM
